Assay results from the supplement of paper PMC10331698.
± gives the standard deviation of the averaged measurements.

Assays:
Experiment in all cases: level (log10 ratio to DMSO vehicle control); higher = higher biomarker level / cell amount than vehicle control
Settings in all cases: in DMSO
[1] = compound: FC(F)(F)C(F)(F)C(F)(F)C(F)(F)C(F)(F)C(F)(F)C(F)(F)CCI [1-Iodo-1H,1H,2H,2H-perfluorononane]
Protocol: (§1)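 BioMAP Diversity Plus panel of 12 human primary cell co-culture systems (3C, 4H, LPS, SAg, BT, BF4T, BE3C, CASM3C, HDF3CGF, KF3CT, MyoF, Mphg). Compounds were added 1 h before stimulation and left for 24 h (MyoF 48 h; BT 72 h for soluble read-outs or 6 d for IgG). Biomarkers were read by ELISA, cytotoxicity by SRB, PBMC viability and proliferation by Alamar Blue. Each well value was divided by the mean of 8 DMSO control wells on the same plate and log10 transformed; duplicate blinded samples were tested at 4 concentrations.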

[2] = compound: CNS(=O)(=O)C(F)(F)C(F)(F)C(F)(F)C(F)(F)C(F)(F)C(F)(F)C(F)(F)C(F)(F)F [N-Methylperfluorooctanesulfonamide]
Protocol: as §1

Perfluorooctanamide = compound: NC(=O)C(F)(F)C(F)(F)C(F)(F)C(F)(F)C(F)(F)C(F)(F)C(F)(F)F [Perfluorooctanamide]
Protocol: as §1

1H,1H-Heptafluorobutanol = compound: OCC(F)(F)C(F)(F)C(F)(F)F [1H,1H-Heptafluorobutanol]
Protocol: as §1

[3] = compound: C=CC(=O)OCCC(F)(F)C(F)(F)C(F)(F)C(F)(F)F [2-(Perfluorobutyl)ethyl acrylate]
Protocol: as §1

Hexafluoroglutaric acid = compound: O=C(O)C(F)(F)C(F)(F)C(F)(F)C(=O)O [Hexafluoroglutaric acid]
Protocol: as §1

[4] = compound: O=P(O)(O)CCC(F)(F)C(F)(F)C(F)(F)C(F)(F)C(F)(F)C(F)(F)C(F)(F)C(F)(F)F [((Perfluorooctyl)ethyl)phosphonic acid]
Protocol: as §1

Test System | level (log10) ([1]; 6700 nM) | level (log10) ([1]; 20000 nM) | level (log10) ([2]; 6700 nM) | level (log10) ([2]; 20000 nM) | level (log10) ([2]; 60000 nM) | level (log10) (Perfluorooctanamide; 6700 nM) | level (log10) (Perfluorooctanamide; 20000 nM) | level (log10) (Perfluorooctanamide; 60000 nM) | level (log10) (1H,1H-Heptafluorobutanol; 6700 nM) | level (log10) (1H,1H-Heptafluorobutanol; 20000 nM) | level (log10) (1H,1H-Heptafluorobutanol; 60000 nM) | level (log10) ([3]; 6700 nM) | level (log10) ([3]; 20000 nM) | level (log10) ([3]; 60000 nM) | level (log10) (Hexafluoroglutaric acid; 6700 nM) | level (log10) (Hexafluoroglutaric acid; 20000 nM) | level (log10) (Hexafluoroglutaric acid; 60000 nM) | level (log10) ([4]; 6700 nM) | level (log10) ([4]; 20000 nM) | level (log10) ([4]; 60000 nM)
3C:CXCL9/MIG | 0.002 ± 0.0042 | 0.007 ± 0.013 | 0.001 ± 0.0014 | -0.0075 ± 0.011 | 0.022 ± 0.0057 | 0.01 ± 0.0042 | 0.008 ± 0.014 | 0.031 ± 0.0014 | 0.001 ± 0.021 | 0.002 ± 0.014 | 0 ± 0.017 | 0.0135 ± 0.013 | -0.011 ± 0.0099 | -0.0025 ± 0.0035 | -0.014 ± 0.0085 | -0.005 ± 0.0042 | -0.0075 ± 0.0035 | 0.006 ± 0.0057 | -0.0045 ± 0.005 | 0.0185 ± 0.0064
SAg:Proliferation | -0.0025 ± 0.063 | -0.0055 ± 0.074 | -0.0295 ± 0.026 | -0.0755 ± 0.0092 | -0.048 ± 0.1 | -0.05 ± 0.071 | -0.0255 ± 0.033 | -0.001 ± 0.0014 | 0.009 ± 0.0042 | 0.008 ± 0.02 | 0.0125 ± 0.021 | -0.043 ± 0.035 | -0.122 ± 0.035 | -0.372 ± 0.1 | -0.019 ± 0.0071 | -0.0445 ± 0.033 | -0.0275 ± 0.013 | -0.023 ± 0.023 | -0.03 ± 0.0071 | -0.0345 ± 0.077
LPS:CXCL8/IL-8 | 0.005 ± 0.072 | -0.001 ± 0.082 | -0.007 ± 0.0085 | -0.003 ± 0.016 | -0.0025 ± 0.019 | -0.012 ± 0.024 | -0.049 ± 0.023 | -0.0335 ± 0.021 | 0.0085 ± 0.013 | -0.006 | -0.025 ± 0.0014 | 0.0145 ± 0.015 | 0.0225 ± 0.012 | -0.015 ± 0.054 | -0.0235 ± 0.012 | -0.0535 ± 0.018 | -0.028 ± 0.067 | -0.021 ± 0.021 | -0.0255 ± 0.011 | -0.04 ± 0.0057
BT:B cell Proliferation | 0.0135 ± 0.029 | 0.0045 ± 0.015 | 0.006 ± 0.0028 | -0.007 ± 0.023 | -0.0195 ± 0.03 | 0.013 ± 0.024 | 0.0055 ± 0.00071 | -0.028 ± 0.054 | 0.0265 ± 0.0078 | -0.0155 ± 0.026 | -0.016 ± 0.075 | -0.018 ± 0.0014 | -0.0275 ± 0.011 | -0.264 ± 0.063 | -0.005 ± 0.0042 | -0.0035 ± 0.0078 | 0.011 ± 0.017 | 0.014 ± 0.021 | -0.0325 ± 0.044 | -0.136 ± 0.058
SAg:PBMC Cytotoxicity | -0.005 ± 0.045 | 0.0205 ± 0.035 | 0.0065 ± 0.018 | 0.034 ± 0.0042 | 0.044 ± 0.045 | -0.027 ± 0.038 | -0.0135 ± 0.025 | 0.024 ± 0.034 | -0.0165 ± 0.012 | -0.024 ± 0.024 | 0.0155 ± 0.047 | -0.034 ± 0.0085 | -0.0385 ± 0.011 | -0.125 ± 0.028 | 0.0035 ± 0.0078 | 0.014 ± 0.0042 | -0.005 ± 0.058 | -0.025 ± 0.017 | -0.04 ± 0.0042 | -0.037 ± 0.037
BF4T:MMP-3 | 0.0185 ± 0.013 | 0.011 ± 0.0014 | 0.0015 ± 0.046 | 0.012 ± 0.052 | 0.044 ± 0.064 | -0.007 ± 0.051 | 0.0125 ± 0.012 | 0.019 ± 0.017 | 0.004 ± 0.016 | -0.0135 ± 0.012 | 0.0055 ± 0.04 | -0.008 ± 0.021 | 0.0315 ± 0.052 | 0.0525 ± 0.00071 | -0.0045 ± 0.0092 | -0.0125 ± 0.035 | 0.0175 ± 0.0021 | -0.013 ± 0.02 | 0.009 ± 0.011 | 0.014 ± 0.079
BE3C:CD54/ICAM-1 | 0.0115 ± 0.005 | -0.009 ± 0.016 | 0.0055 ± 0.0021 | 0.0255 ± 0.0021 | 0.016 ± 0.0071 | -0.012 ± 0.0042 | -0.0075 ± 0.012 | -0.022 ± 0.033 | -0.0035 ± 0.0092 | -0.0105 ± 0.00071 | 0.0085 ± 0.011 | -0.0045 ± 0.0035 | -0.0175 ± 0.0064 | -0.037 ± 0.03 | 0.018 ± 0.0042 | 0.0095 ± 0.018 | 0.009 ± 0.02 | -0.0275 ± 0.00071 | -0.024 | 0.0045 ± 0.012
